Patent publication US4717767A, “7-amino-3-(pyrazinylmethyl) or (pyridazinylmethyl)-cephalosporins” (Toyama Chemical Co., Ltd., priority 1982, dated 1988)
Converted amounts (≈) assume the structure as drawn. Counter-ions that a name gives are not always drawn. Like-named read-outs stand apart in the source and are kept apart here.

Key:
Type in all cases: cell-based
Cit. freundii N-7 = experiment: Antibacterial activity (MIC), Cit. freundii N-7; details: Citrobacter freundii
Excerpt: (§1) The amount of the inoculated bacteria was 10^4 cells/plate (10^6 cells/ml).

Ps. aeruginosa GN918 = experiment: Antibacterial activity (MIC), Ps. aeruginosa GN918; details: Pseudomonas aeruginosa, cephalosporinase-producing strain, Heart Infusion agar, 37° C., 20 hours, 10^6 cells/ml
Excerpt: as §1

Ser. marcescens W-134 = experiment: Antibacterial activity (MIC), Ser. marcescens W-134; details: Serratia marcescens
Excerpt: as §1

Kl. pneumoniae Y-50 = experiment: Antibacterial activity (MIC), Kl. pneumoniae Y-50; details: Klebsiella pneumoniae, Y50; Heart Infusion agar, 37° C., 20 hours, 10^6 cells/ml
Excerpt: as §1

Ser. marcescens IID620 = experiment: Antibacterial activity (MIC), Ser. marcescens IID620; details: Serratia marcescens
Excerpt: as §1

Kl. pneumoniae Y-4 = experiment: Antibacterial activity (MIC), Kl. pneumoniae Y-4; details: Klebsiella pneumoniae, Y4; penicillinase-producing strain; Heart Infusion agar, 37° C., 20 hours, 10^6 cells/ml
Excerpt: as §1

Pro. morganii T-216 = experiment: Antibacterial activity (MIC), Pro. morganii T-216; details: Morganella morganii, T216; Heart Infusion agar, 37° C., 20 hours, 10^6 cells/ml
Excerpt: as §1

Pro. vulgaris GN76 = experiment: Antibacterial activity (MIC), Pro. vulgaris GN76; details: Proteus vulgaris, cephalosporinase-producing strain, Heart Infusion agar, 37° C., 20 hours, 10^6 cells/ml
Excerpt: as §1

Kl. pneumoniae Y-41 = experiment: Antibacterial activity (MIC), Kl. pneumoniae Y-41; details: Klebsiella pneumoniae, Y41; Heart Infusion agar, 37° C., 20 hours, 10^6 cells/ml
Excerpt: as §1

Pro. mirabilis T-111 = experiment: Antibacterial activity (MIC), Pro. mirabilis T-111; details: Proteus mirabilis
Excerpt: as §1

E. coli NIHJ = experiment: Antibacterial activity (MIC), E. coli NIHJ; details: Escherichia coli; Heart Infusion agar, 37° C., 20 hours, 10^4 cells/plate (10^6 cells/ml)
Excerpt: as §1

E. coli TK-3 = experiment: Antibacterial activity (MIC), E. coli TK-3; details: Escherichia coli
Excerpt: as §1

[1] = N7, Heart Infusion agar, 37° C., 20 hours, 10^6 cells/ml, read-out: MIC
[2] = W134, Heart Infusion agar, 37° C., 20 hours, 10^6 cells/ml, read-out: MIC
[3] = IID620, Heart Infusion agar, 37° C., 20 hours, 10^6 cells/ml, read-out: MIC
[4] = T111, Heart Infusion agar, 37° C., 20 hours, 10^6 cells/ml, read-out: MIC
[5] = TK3, penicillinase-producing strain, Heart Infusion agar, 37° C., 20 hours, 10^6 cells/ml, read-out: MIC

Compound	MIC (Cit. freundii N-7; [1])	MIC (Ps. aeruginosa GN918)	MIC (Ser. marcescens W-134; [2])	MIC (Kl. pneumoniae Y-50)	MIC (Ser. marcescens IID620; [3])	MIC (Kl. pneumoniae Y-4)	MIC (Pro. morganii T-216)	MIC (Pro. vulgaris GN76)	MIC (Kl. pneumoniae Y-41)	MIC (Pro. mirabilis T-111; [4])	MIC (E. coli NIHJ)	MIC (E. coli TK-3; [5])	MIC (Pro. mirabilis T-111; T111, 20 h)	MIC (Ser. marcescens W-134; W134, 20 h)	MIC (Ser. marcescens IID620; IID620, 20 h)	MIC (Cit. freundii N-7; N7, 20 h)	MIC (E. coli TK-3; TK3, 20 h)
CO/N=C(\C(=O)NC1C(=O)N2C(C(=O)O)=C(Cn3cc[nH]c(=O)c3=O)CSC12)c1csc(N)n1 (stereo not drawn) [A, trifluoroacetic acid salt of 7-[2-(2-aminothiazol-4-yl)-2-(syn)-methoxyiminoacetamido]-3-{[1-(2,3-dioxo-1,2,3,4-tetrahydropyrazinyl)]methyl}-Δ^3-cephem-4-carboxylic acid]	0.39 µg/mL	12.5 µg/mL	≤ 0.1 µg/mL	≤ 0.1 µg/mL	≤ 0.1 µg/mL	≤ 0.1 µg/mL	≤ 0.1 µg/mL	≤ 0.1 µg/mL	≤ 0.1 µg/mL	≤ 0.1 µg/mL	≤ 0.1 µg/mL	≤ 0.1 µg/mL					
CO/N=C(\C(=O)NC1C(=O)N2C(C(=O)O)=C(Cn3ccn(C)c(=O)c3=O)CSC12)c1csc(N)n1 (stereo not drawn) [B, trifluoroacetic acid salt of 7-[2-(2-aminothiazol-4yl)-2-(syn)-methoxyiminoacetamido]-3-{[1-(4-methyl-2,3-dioxo-1,2,3,4-tetrahydropyrazinyl)]methyl}-Δ^3-cephem-4-carboxylic acid]	1.56 µg/mL	25 µg/mL	≤ 0.1 µg/mL	≤ 0.1 µg/mL	≤ 0.1 µg/mL	0.2 µg/mL	≤ 0.1 µg/mL	0.2 µg/mL	≤ 0.1 µg/mL	≤ 0.1 µg/mL	≤ 0.1 µg/mL	≤ 0.1 µg/mL					
CCn1ccn(CC2=C(C(=O)O)N3C(=O)C(NC(=O)/C(=N\OC)c4csc(N)n4)C3SC2)c(=O)c1=O (stereo not drawn) [C, trifluoroacetic acid salt of 7-[2-(2-aminothiazol-4-yl)-2-(syn)-methoxyiminoacetamido]-3-{[1-(4-ethyl-2,3-dioxo-1,2,3,4-tetrahydropyrazinyl)]methyl}-Δ^3-cephem-4-carboxylic acid]	0.78 µg/mL	6.25 µg/mL	≤ 0.1 µg/mL	≤ 0.1 µg/mL	≤ 0.1 µg/mL	≤ 0.1 µg/mL	≤ 0.1 µg/mL	1.56 µg/mL	≤ 0.1 µg/mL	≤ 0.1 µg/mL	≤ 0.1 µg/mL	≤ 0.1 µg/mL					
CO/N=C(\C(=O)NC1C(=O)N2C(C(=O)O)=C(Cn3ccn(C(C)C)c(=O)c3=O)CSC12)c1csc(N)n1 (stereo not drawn) [D, trifluoroacetic acid salt of 7-[2-(2-aminothiazol-4-yl)-(syn)-methoxyiminoacetamido]-3-{[1-(4-isopropyl-2,3-dioxo-1,2,3,4-tetrahydropyrazinyl)]methyl}-Δ^3-cephem-4-carboxylic acid]	1.56 µg/mL		≤ 0.1 µg/mL	≤ 0.1 µg/mL	≤ 0.1 µg/mL	0.39 µg/mL	≤ 0.1 µg/mL	0.39 µg/mL	≤ 0.1 µg/mL		≤ 0.1 µg/mL	≤ 0.1 µg/mL	0.2 µg/mL				
CO/N=C(\C(=O)NC1C(=O)N2C(C(=O)O)=C(Cn3ccn(N(C)C)c(=O)c3=O)CSC12)c1csc(N)n1 (stereo not drawn) [E, trifluoroacetic acid salt of 7-[2-(2-aminothiazol-4-yl)-2-(syn)-methoxyiminoacetamido]-3-{[1-(4-dimethylamino-2,3-dioxo-1,2,3,4-tetrahydropyrazinyl)]-methyl}-Δ^3-cephem-4-carboxylic acid]	0.78 µg/mL		≤ 0.1 µg/mL	≤ 0.1 µg/mL	≤ 0.1 µg/mL	≤ 0.1 µg/mL	≤ 0.1 µg/mL	1.56 µg/mL	≤ 0.1 µg/mL	≤ 0.1 µg/mL	≤ 0.1 µg/mL	≤ 0.1 µg/mL					
Nc1nc(/C(=N/OCC(=O)O)C(=O)NC2C(=O)N3C(C(=O)O)=C(Cn4cc[nH]c(=O)c4=O)CSC23)cs1 (stereo not drawn) [F, 7-[2-(2-aminothiazol-4-yl)-2-(syn)-carboxymethoxyiminoacetamido]-3-{[1-(2,3-dioxo-1,2,3,4-tetrahydropyrazinyl)]methyl}-Δ^3-cephem-4-carboxylic acid]	0.78 µg/mL (≈ 1.41 µM)			≤ 0.1 µg/mL	≤ 0.1 µg/mL	0.2 µg/mL (≈ 0.363 µM)	≤ 0.1 µg/mL	≤ 0.1 µg/mL	0.39 µg/mL (≈ 0.707 µM)	≤ 0.1 µg/mL	≤ 0.1 µg/mL	≤ 0.1 µg/mL		≤ 0.1 µg/mL			
Cn1ccn(CC2=C(C(=O)O)N3C(=O)C(NC(=O)/C(=N\OCC(=O)O)c4csc(N)n4)C3SC2)c(=O)c1=O (centres unmarked) [G]	1.56 µg/mL (≈ 2.76 µM)		≤ 0.1 µg/mL	0.2 µg/mL (≈ 0.354 µM)	≤ 0.1 µg/mL	0.2 µg/mL (≈ 0.354 µM)	≤ 0.1 µg/mL	≤ 0.1 µg/mL	≤ 0.1 µg/mL	≤ 0.1 µg/mL	≤ 0.1 µg/mL	0.2 µg/mL (≈ 0.354 µM)					
CCn1ccn(CC2=C(C(=O)O)N3C(=O)C(NC(=O)/C(=N\OCC(=O)O)c4csc(N)n4)C3SC2)c(=O)c1=O (stereo not drawn) [H, trifluoroacetic acid salt of 7-[2-(2-aminothiazol-4-yl)-2-(syn)-carboxymethoxyiminoacetamido]-3-{[1-(4-ethyl-2,3-dioxo-1,2,3,4-tetrahydropyrazinyl)]methyl}-Δ^3-cephem-4-carboxylic acid]	1.56 µg/mL	6.25 µg/mL	≤ 0.1 µg/mL	0.2 µg/mL	≤ 0.1 µg/mL	0.2 µg/mL	≤ 0.1 µg/mL	≤ 0.1 µg/mL	≤ 0.1 µg/mL	≤ 0.1 µg/mL	≤ 0.1 µg/mL	≤ 0.1 µg/mL					
CN(C)n1ccn(CC2=C(C(=O)O)N3C(=O)C(NC(=O)/C(=N\OCC(=O)O)c4csc(N)n4)C3SC2)c(=O)c1=O (stereo not drawn) [I, trifluoroacetic acid salt of 7-[2-(2-aminothiazol-4-yl)-2-(syn)-carboxymethoxyiminoacetamido]-3-{[1-(4-dimethylamino-2,3-dioxo-1,2,3,4-tetrahydropyrazinyl)]methyl}-Δ^3-cephem-4-carboxylic acid]	1.56 µg/mL	12.5 µg/mL		0.2 µg/mL	≤ 0.1 µg/mL	0.39 µg/mL	≤ 0.1 µg/mL	≤ 0.1 µg/mL	0.2 µg/mL	≤ 0.1 µg/mL	≤ 0.1 µg/mL	≤ 0.1 µg/mL		≤ 0.1 µg/mL			
CO/N=C(\C(=O)NC1C(=O)N2C(C(=O)O)=C(Cn3ccncc3=O)CSC12)c1csc(N)n1 (stereo not drawn) [J, trifluoroacetic acid salt of 7-[2-(2-aminothiazol-4-yl)-2-(syn)-methoxyiminoacetamido]-3-{[1-(2-oxo-1,2-dihydropyrazinyl)]methyl}-Δ^3-cephem-4-carboxylic acid]	0.78 µg/mL			≤ 0.1 µg/mL			≤ 0.1 µg/mL	0.78 µg/mL		0.2 µg/mL	≤ 0.1 µg/mL	0.2 µg/mL		0.39 µg/mL	≤ 0.1 µg/mL		
CO/N=C(\C(=O)NC1C(=O)N2C(C(=O)O)=C(Cn3[nH]c(=O)ccc3=O)CSC12)c1csc(N)n1 (stereo not drawn) [K, trifluoroacetic acid salt of 7-[2-(2-aminothiazol-4-yl)-2-(syn)-methoxyiminoacetamido]-3-{[1-(3,6-dioxo-1,2,3,6-tetrahydropyridazinyl)]methyl}-Δ^3-cephem-4-carboxylic acid]			≤ 0.1 µg/mL	≤ 0.1 µg/mL	≤ 0.1 µg/mL		≤ 0.1 µg/mL	≤ 0.1 µg/mL		≤ 0.1 µg/mL	≤ 0.1 µg/mL					0.78 µg/mL	0.2 µg/mL
Nc1nc(/C(=N/OCC(=O)O)C(=O)NC2C(=O)N3C(C(=O)O)=C(Cn4[nH]c(=O)ccc4=O)CSC23)cs1 (stereo not drawn) [L, formic acid salt of 7-[2-(2-aminothiazol-4-yl)-2-(syn)-carboxymethoxyiminoacetamido]-3-{[1-(3,6-dioxo-1,2,3,6-tetrahydropyridazinyl)]methyl}-Δ^3-cephem-4-carboxylic acid]				0.78 µg/mL			≤ 0.1 µg/mL	≤ 0.1 µg/mL		≤ 0.1 µg/mL	≤ 0.1 µg/mL	0.78 µg/mL		≤ 0.1 µg/mL	1.56 µg/mL	3.13 µg/mL	
CO/N=C(\C(=O)NC1C(=O)N2C(C(=O)O)=C(Cn3nc(C)ccc3=O)CSC12)c1csc(N)n1 (stereo not drawn) [M, trifluoroacetic acid salt of 7-[2-(2aminothiazol-4-yl)-2-(syn)-methoxyiminoacetamido]-3-{[1-(3-methyl-6-oxo-1,6-dihydropyridazinyl)]methyl}-Δ^3-cephem-4-carboxylic acid]	0.78 µg/mL			0.2 µg/mL	0.2 µg/mL		0.2 µg/mL	0.2 µg/mL		0.2 µg/mL	≤ 0.1 µg/mL	0.2 µg/mL		0.78 µg/mL			
Cc1ccc(=O)n(CC2=C(C(=O)O)N3C(=O)C(NC(=O)/C(=N\OCC(=O)O)c4csc(N)n4)C3SC2)n1 (centres unmarked) [N]			≤ 0.1 µg/mL	0.39 µg/mL (≈ 0.71 µM)	≤ 0.1 µg/mL		≤ 0.1 µg/mL	≤ 0.1 µg/mL		≤ 0.1 µg/mL	≤ 0.1 µg/mL	0.2 µg/mL (≈ 0.364 µM)				0.78 µg/mL (≈ 1.42 µM)	
